Here are results for one compound from patent publication US8815863B2, “Compounds and therapeutic use thereof for protein kinase inhibition” (priority 2009, dated 2014).

SMILES strings stand for the structures. Like-named read-outs stand apart in the source and are kept apart here.

Data set [1] deals with HT-29 Cell line. In words: SRB cell multiplication test, sensitizing to cytotoxic antitumor drugs.
Protocol: 3.2 Cell Lines: HT-29 Cell line (from ATCC).
Test Protocol: The effects of the compounds on cancer cell multiplication was measured using Sulforhodamine B (SRB). Specifically, log phase cells are inoculated into the holes of 96-hole culture plates, allowed to grow using the wall-adhesion procedure at 37° C. under 5% CO2. The test compound at 9 different concentrations were added, each concentration in duplicate, with appropriate saline water and cell-less controls. The cells are cultured for a further 72 hours, and fixed with TCA, and SRB is added for staining, and washed, and air-dried. After adding the Tris solution, the OD value was measured at 510 nm using a Spectra Max 190. The rate of inhibition is calculated according to the formula below: Rate of Inhibition=(ODcontrol−ODdrug)/ODcontrol×100%.
The IC50 is calculated based on the above ratios.
The nature of data set [2]: Body weight of ovarian cancer transplanted nude mice. The class given is in vivo, nude mice BALB/c-nu. Particulars: i.v. The protocol: (§1) Starting from 11 days after tumor implant, the animals are administered the test compounds i.v. The animals are weighed every two days, and the tumor volume is measured. After 24 days from the beginning of test compound administration, the animals are killed and the tumors are isolated and weighed.

Data set [3] concerns human ovarian cancer. In words: Human ovarian cancer transplanted nude mice, combination with Gemcitabine. The class given is in vivo, nude mice BALB/c-nu. The protocol: The compound used for this test is XC608, shown above, and XC608-Cl is the chloride salt of XC608, 090208-1, also a whitish powder. AZD7762 is a yellow powder.
All of the above are dissolved in 5% glucose injectible solution and diluted to suitable concentrations. Control: Gemcitabine is obtained from Jiangsu Haosen Pharmaceuticals Co., Ltd., also dissolved to suitable concentration in saline solution.
Test animals: 30 nude mice BALB/c-nu, female, bw 18-20 g, supplied by B&K Universal Group Limited, Shanghai, China. Cancer cell lines: the human ovarian cell line is from a commercial source, transplanted onto nude mice, which were maintained by Shanghai Pharmaceutical Industry Research Institute.
The tumors from the ovarian cancer carrying nude mice is isolated and cut into 1-mm^3 pieces, which are then implanted subcutaneously to the test nude mice. After 10 days, the tumors grow to a size of about 0.1 cm^3. The test mice are randomly divided into 5 groups of six animals.
as §1
The tumor volume (TV) is measured and calculated.
Relative Tumor volume (RTV) is Vt/V0, wherein Vt is the tumor volume at the measurement time, while V0 is the tumor volume when drug administration was started.
A compound's antitumor activity is measured by the RTV growth rate, T/C (%), which is calculated as: T/C=Treatment RTC/Control Group RTC×100%.
If TC(%) is more than 60, then the treatment is considered to have no effect. Only when the TC is less than 60, an the difference is statistically significant would the treatment be considered to be effective.
Another measurement is rate of tumor inhibition, which is IR (%)=(control group tumor weight−treatment group tumor weight)/control group tumor weight×100%.

For data set [4], the system named is Human colon cancer HT-99. In words: Human colon cancer HT-99 transplanted nude mice. It counts as in vivo. Particulars: GCT 20 mg/kg ip, compound 1 15 mg/kg iv. On the procedure:
Some of the above compounds are tested in vitro or in vivo for their anti-cancer or anti-tumor activities, as well as cellular toxicity tests using SRB and MTT methods. The in vitro anti-cancer effects on human cancer HT-29 and mouse lung cancer cell 3LL are summarized in Table 1, and the effects on treating transplanted human colon cancer […] on nude mice are summarized in Table 2.

For orientation: IC50 means the concentration at which inhibition is half-maximal.

With `Nc1ccn([C@@H]2O[C@H](CO)[C@@H](O)C2(F)F)c(=O)n1` [Gemcitabine, gemcitabine], the concentration for half-maximal inhibition (IC50) is 70 nM in data set [1] (Homo sapiens, HT-29, 72 h, read-out: IC50 Drug alone); 30 nM in data set [1] (read-out: IC50 +10 nM AZD7762, HT-29, SRB, 72 hours, drug +10 nM AZD7762); 5 nM in data set [1] (read-out: IC50 +100 nM AZD7762, HT-29, SRB, 72 hours, drug +100 nM AZD7762); 3 nM in data set [1] (read-out: IC50 +1 μM XC608, HT-29, SRB, 72 hours, drug +1 μM XC608). The “Body Weight (no tumor) Dn” value in data set [2] (Dn, end of test) was determined as 22.65 g. Further, the “Body Weight (with tumor) d0” value in data set [2] (d0, start of administration) is listed as 21.38 g. The “Body Weight (with tumor) dn” value in data set [2] (dn, end of test) was 25.50 g. For the same compound, the “TV Dn” value in data set [3] (Dn, end of test, i.v.) was determined as 1734.05 ± 586.49 mm^3. Moreover, the RTV dn in data set [3] (Vt/V0 at dn) was found to be 12.07. For the same compound, the “TV d0” value in data set [3] (d0, start of administration) was 143.67 ± 44.38 mm^3. The “Tumor Weight dn” value in data set [3] (isolated tumors at dn) came to 2.85 g. Further, the “Tumor RI % dn” value in data set [3] (rate of tumor inhibition by tumor weight versus control) is 19.72%. In addition, the “T/C % Dn” value in data set [3] (treatment RTV/control RTV, *p < 0.05, **p < 0.01) stood at 82.27%. For the same compound, the “TC (%)” value in data set [4] worked out at 45%.
